Source: patent US9809550B2, “Quinolyl hydrazones for the treatment of tuberculosis and related diseases” (TECNIMEDE SOCIEDADE TECNICO-MEDICINAL S.A., priority 2012, dated 2017)

Tested on: Mycobacterium smegmatis
Assay: In vitro Mycobacterium smegmatis growth inhibition assay (suspension turbidity)
Assay type: cell-based
Details: for Inhibitory activity against Mycobacterium smegmatis growth, in words, compared with RMP: versus active control RMP; for IC50: Mycolicibacterium smegmatis, four parameter curve fit of the 96 hours growth data, read-out: IC50 (concentration to inhibit 50% of the Mycobacterium smegmatis growth)

| Molecule | Inhibitory activity against Mycobacterium smegmatis growth, in words, compared with RMP | IC50 | % of Celular Growth at 96 hours (concentration 1.23 uM) | % of Celular Growth at 96 hours (concentration 3.70 uM) | % of Celular Growth at 96 hours (concentration 11.11 uM) | % of Celular Growth at 96 hours (concentration 33.33 uM) | % of Celular Growth at 96 hours (concentration 100.00 uM) |
| --- | --- | --- | --- | --- | --- | --- | --- |
| 3,5-dibromo-2-hydroxybenzaldehyde (2-pyridinyl)hydrazine [Compound no. 42] | superior inhibitory activity | – | – | – | – | – | – |
| Oc1ccc(Br)cc1C=NNc1ccc2ccccc2n1 [Compound no. 76, 5-bromo-2-hydroxybenzaldehyde 2-quinolinylhydrazone] | better IC50 values than RMP | 16.2 µM | 118.35% | 113.44% | 121.72% | 43.92% | 51.50% |
| Cc1cc(NN=Cc2ccccc2O)nc2ccccc12 [Compound no. 77, 2-hydroxybenzaldehyde-(4-methyl-2-quinolinyl)hydrazone] | better IC50 values than RMP | 6.59 µM | 77.17% | 57.42% | 29.14% | 22.41% | 34.09% |
